Test [1] concerns Respiratory syncytial virus recombinant with luciferase (RSV-Luc5) in HEp-2 cells. Nature of the test: HEp-2 RSV-Luc5 384-well assay (EC50 RSVFLUC Hep2-384 v2, Example V). Format: cell-based. Conditions: human respiratory syncytial virus, HEp-2, 72 h, read-out: RSV Hep-2 FLuc EC50 (v2) (nM) (per Ex. V). Put shortly: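 HEp-2 cells (4,000/well) infected with RSV-Luc5 at MOI 0.5 in DMEM/10% FBS with compound, 10-point 1:3 dilutions, 3 days at 37 °C. Replication read by One-Glo luminescence, normalized to remdesivir (0%) and DMSO (100%). EC50 from non-linear regression as concentration giving 50% reduction.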

Test [2] concerns Respiratory syncytial virus recombinant with luciferase (RSV-Luc5) in NHBE cells. The test is described as follows: NHBE RSV-Luc5 384-well assay (EC50 RSVFLUC NHBE-384, Example U). It counts as cell-based. To be noted: human respiratory syncytial virus, 72 h, read-out: RSV FLuc NHBE 384 EC50 (v2) (nM) (per Ex. U). Put shortly:
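Passage-2 NHBE cells (5,000/well) on pre-spotted compounds, 10-point 1:3 series, infected with RSV-Luc5 at MOI 1 and incubated 3 days at 37° C. Replication read by One-Glo luminescence, normalized to remdesivir (0%) and DMSO (100%); EC50 = concentration reducing replication by 50%, by non-linear regression.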

Take `CCCCCCCCCCCCCCCCCCCC[C@H](COP(=O)(O)OC[C@@]1(C#N)O[C@@H](c2ccc3c(N)ncnn23)[C@H](O)[C@@H]1O)Oc1cccc(C#N)c1` [Compound 51, ((2R,3S,4R,5S)-5-(4-aminopyrrolo[2,1-f][1,2,4]triazin-7-yl)-2-cyano-3,4-dihydroxytetrahydrofuran-2-yl)methyl ((R)-2-(3-cyanophenoxy)docosyl) hydrogen phosphate]: the EC50 in test [1] is 436 nM; in test [2] it was 56 nM.

`CCCCCCCCCCCCCCCCCOC[C@H](COP(=O)(O)OC[C@@]1(C#N)O[C@@H](c2ccc3c(N)ncnn23)[C@H](O)[C@@H]1O)OCc1cc(F)cc(C#N)c1` [Compound 53, ((2R,3S,4R,5S)-5-(4-aminopyrrolo[2,1-f][1,2,4]triazin-7-yl)-2-cyano-3,4-dihydroxytetrahydrofuran-2-yl)methyl ((R)-2-((3-cyano-5-fluorobenzyl)oxy)-3-(heptadecyloxy)propyl) hydrogen phosphate]: the figures for the EC50 in test [1] and in test [2] were 200 nM and 22 nM, respectively.

In the case of `CCCCCCCCCCCCCCCCCCOC[C@H](COP(=O)(O)OC[C@@]1(C#N)O[C@@H](c2ccc3c(N)ncnn23)[C@H](O)[C@@H]1O)OCc1cccc(C#N)n1` [Compound 68, ((2R,3S,4R)-5-(4-aminopyrrolo[2,1-f][1,2,4]triazin-7-yl)-2-cyano-3,4-dihydroxytetrahydrofuran-2-yl)methyl ((R)-2-((6-cyanopyridin-2-yl)methoxy)-3-(octadecyloxy)propyl) hydrogen phosphate], the EC50 came out at 110 nM in test [1] and 9 nM in test [2].

In the case of `CCCCCCCCCCCCCCOC[C@H](COP(=O)(O)OC[C@@]1(C#N)O[C@@H](c2ccc3c(N)ncnn23)[C@H](O)[C@@H]1O)Oc1cc(C#N)ccn1` [Compound 69, ((2R,3S,4R)-5-(4-aminopyrrolo[2,1-f][1,2,4]triazin-7-yl)-2-cyano-3,4-dihydroxytetrahydrofuran-2-yl)methyl ((R)-2-((4-cyanopyridin-2-yl)oxy)-3-(tetradecyloxy)propyl) hydrogen phosphate], the EC50 in test [1] amounted to 674 nM; in test [2] it was 32 nM.

Take `CCCCCCCCCCCCCCCCCCCC[C@@H](COP(=O)(O)OC[C@@]1(C#N)O[C@@H](c2ccc3c(N)ncnn23)[C@H](O)[C@@H]1O)OCc1cc(F)cc(C#N)c1` [Compound 70, ((2R,3S,4R)-5-(4-aminopyrrolo[2,1-f][1,2,4]triazin-7-yl)-2-cyano-3,4-dihydroxytetrahydrofuran-2-yl)methyl ((S)-2-((3-cyano-5-fluorobenzyl)oxy)docosyl) hydrogen phosphate]: the EC50 in test [1] came out at 1770 nM; in test [2], 165 nM.

`CCCCCCCCCCCCCCCCCCOC[C@@H](COP(=O)(O)OC[C@@]1(C#N)O[C@@H](c2ccc3c(N)ncnn23)[C@H](O)[C@@H]1O)Oc1ccc(C#N)nc1` [Compound 72, ((2R,3S,4R,5S)-5-(4-aminopyrrolo[2,1-f][1,2,4]triazin-7-yl)-2-cyano-3,4-dihydroxytetrahydrofuran-2-yl)methyl ((S)-2-((6-cyanopyridin-3-yl)oxy)-3-(octadecyloxy)propyl) hydrogen phosphate]: the EC50 in test [1] was determined as 45 nM; in test [2] it was 4 nM.

For `CCCCCCCCCCCCCCCCCCOC[C@H](COP(=O)(O)OC[C@@]1(C#N)O[C@@H](c2ccc3c(N)ncnn23)[C@H](O)[C@@H]1O)OCc1ccc(C#N)cc1OC` [Compound 73, ((2R,3S,4R)-5-(4-aminopyrrolo[2,1-f][1,2,4]triazin-7-yl)-2-cyano-3,4-dihydroxytetrahydrofuran-2-yl)methyl ((R)-2-((4-cyano-2-methoxybenzyl)oxy)-3-(octadecyloxy)propyl) hydrogen phosphate], the EC50 in test [1] was determined as 104 nM; in test [2] it was 10 nM.

As for `CCCCCCCCCCCCCCCCC[C@@H](COP(=O)(O)OC[C@@]1(C#N)O[C@@H](c2ccc3c(N)ncnn23)[C@H](O)[C@@H]1O)OCc1cc(F)cc(C#N)c1` [Compound 74, ((2R,3S,4R)-5-(4-aminopyrrolo[2,1-f][1,2,4]triazin-7-yl)-2-cyano-3,4-dihydroxytetrahydrofuran-2-yl)methyl ((S)-2-((3-cyano-5-fluorobenzyl)oxy)nonadecyl) hydrogen phosphate], the figures for the EC50 in test [1] and in test [2] were 782 nM and 85 nM, respectively.

On to `CCCCCCCCCCCCCCOC[C@H](COP(=O)(O)OC[C@@]1(C#N)O[C@@H](c2ccc3c(N)ncnn23)[C@H](O)[C@@H]1O)OCc1ccc(C#N)cc1F` [Compound 75, ((2R,3S,4R,5S)-5-(4-aminopyrrolo[2,1-f][1,2,4]triazin-7-yl)-2-cyano-3,4-dihydroxytetrahydrofuran-2-yl)methyl ((R)-2-((4-cyano-2-fluorobenzyl)oxy)-3-(tetradecyloxy)propyl) hydrogen phosphate], for which the figures for the EC50 in test [1] and in test [2] were 446 nM and 12 nM, respectively.

For the molecule `CCCCCCCCCCCCCCCCC[C@H](COP(=O)(O)OC[C@@]1(C#N)O[C@@H](c2ccc3c(N)ncnn23)[C@H](O)[C@@H]1O)OCc1cc(Cl)cc(C#N)c1` [Compound 76, ((2R,3S,4R)-5-(4-aminopyrrolo[2,1-f][1,2,4]triazin-7-yl)-2-cyano-3,4-dihydroxytetrahydrofuran-2-yl)methyl ((R)-2-((3-chloro-5-cyanobenzyl)oxy)nonadecyl) hydrogen phosphate], the results for the EC50 in test [1] and in test [2] were 382 nM and 113 nM, respectively.

As to `CCCCCCCCCCCCCCCC[C@H](COP(=O)(O)OC[C@@]1(C#N)O[C@@H](c2ccc3c(N)ncnn23)[C@H](O)[C@@H]1O)OCc1cc(F)cc(C#N)c1` [Compound 78, ((2R,3S,4R,5S)-5-(4-aminopyrrolo[2,1-f][1,2,4]triazin-7-yl)-2-cyano-3,4-dihydroxytetrahydrofuran-2-yl)methyl ((R)-2-((3-cyano-5-fluorobenzyl)oxy)octadecyl) hydrogen phosphate], the EC50 in test [1] is 439 nM; in test [2], 31 nM.

For the molecule `CCCCCCCCCCCCCCCC[C@@H](COP(=O)(O)OC[C@@]1(C#N)O[C@@H](c2ccc3c(N)ncnn23)[C@H](O)[C@@H]1O)OCc1cc(F)cc(C#N)c1` [Compound 79, ((2R,3S,4R,5S)-5-(4-aminopyrrolo[2,1-f][1,2,4]triazin-7-yl)-2-cyano-3,4-dihydroxytetrahydrofuran-2-yl)methyl ((S)-2-((3-cyano-5-fluorobenzyl)oxy)octadecyl) hydrogen phosphate], the EC50 in test [1] was 1090 nM; in test [2], 19 nM.

As for `CCCCCCCCCCCCCCC[C@H](COP(=O)(O)OC[C@@]1(C#N)O[C@@H](c2ccc3c(N)ncnn23)[C@H](O)[C@@H]1O)OCc1cc(F)cc(C#N)c1` [Compound 80, ((2R,3S,4R,5S)-5-(4-aminopyrrolo[2,1-f][1,2,4]triazin-7-yl)-2-cyano-3,4-dihydroxytetrahydrofuran-2-yl)methyl ((R)-2-((3-cyano-5-fluorobenzyl)oxy)heptadecyl) hydrogen phosphate], the EC50 in test [1] is 1050 nM; in test [2], 36 nM.

Regarding `CCCCCCCCCCCCCCCCCC[C@H](COP(=O)(O)OC[C@@]1(C#N)O[C@@H](c2ccc3c(N)ncnn23)[C@H](O)[C@@H]1O)OCc1cc(Cl)cc(C#N)c1` [Compound 81, ((2R,3S,4R,5S)-5-(4-aminopyrrolo[2,1-f][1,2,4]triazin-7-yl)-2-cyano-3,4-dihydroxytetrahydrofuran-2-yl)methyl ((R)-2-((3-chloro-5-cyanobenzyl)oxy)icosyl) hydrogen phosphate], the EC50 is 445 nM in test [1] and 83 nM in test [2].

In the case of `CCCCCCCCCCCCCCCCCCC[C@H](COP(=O)(O)OC[C@@]1(C#N)O[C@@H](c2ccc3c(N)ncnn23)[C@H](O)[C@@H]1O)OCc1cc(Cl)cc(C#N)c1` [Compound 82, ((2R,3S,4R,5S)-5-(4-aminopyrrolo[2,1-f][1,2,4]triazin-7-yl)-2-cyano-3,4-dihydroxytetrahydrofuran-2-yl)methyl ((R)-2-((3-chloro-5-cyanobenzyl)oxy)henicosyl) hydrogen phosphate], the EC50 worked out at 1250 nM in test [1] and 147 nM in test [2].

For `CCCCCCCCCCCCCCCCCC[C@H](COP(=O)(O)OC[C@@]1(C#N)O[C@@H](c2ccc3c(N)ncnn23)[C@H](O)[C@@H]1O)OCc1cc(F)cc(C#N)c1` [Compound 84, ((2R,3S,4R,5S)-5-(4-aminopyrrolo[2,1-f][1,2,4]triazin-7-yl)-2-cyano-3,4-dihydroxytetrahydrofuran-2-yl)methyl ((R)-2-((3-cyano-5-fluorobenzyl)oxy)icosyl) hydrogen phosphate], the EC50 was determined as 325 nM in test [1] and 9 nM in test [2].

In the case of `CCCCCCCCCCCCCCCCOC[C@@H](COP(=O)(O)OC[C@@]1(C#N)O[C@@H](c2ccc3c(N)ncnn23)[C@H](O)[C@@H]1O)OCc1cc(F)cc(C#N)c1` [Compound 88, ((2R,3S,4R,5S)-5-(4-aminopyrrolo[2,1-f][1,2,4]triazin-7-yl)-2-cyano-3,4-dihydroxytetrahydrofuran-2-yl)methyl ((S)-2-((3-cyano-5-fluorobenzyl)oxy)-3-(hexadecyloxy)propyl) hydrogen phosphate], the figures for the EC50 in test [1] and in test [2] were 191 nM and 38 nM, respectively.

As usually defined, the EC50 is the midpoint of the concentration-response curve.

The values above are taken from patent publication US20250034182A1, “PHOSPHOLIPID COMPOUNDS AND METHODS OF MAKING AND USING THE SAME” (priority 2021, published 2025).
